According to patent US10344279B2, “Methods for the prevention and the treatment of extracapillary glomerulonephritis” (INSERM (Institut National de la Sante et de la Recherche …, priority 2014, dated 2019):

Assays:
NTS-challenged mice = test: NTS-induced crescentic glomerulonephritis (RPGN): albuminuria, BUN, crescentic glomeruli; type: in vivo
Procedure: Podocyte-specific disruption of Stat3 mice were generated by crossing podocin-Cre positive mice (63) with Stat3 floxed mice (64) on C57BL6/J background. Their age-matched littermates with no deletion of Stat3 in any cells are considered as controls. […] Stattic (25 mg/kg) was administered in i.p. way every other day for 10 days. 10 weeks old 129S2/SvPasCr male mice were randomly treated with Stattic and were compared to vehicle-treated (DMSO) littermates.
The glomerulonephritis was induced on male mice (10-12 weeks of age) by intravenous injection of 15 μL of sheep anti-glomerular basement membrane (GBM) nephrotoxic serum (NTS), which was diluted with 85 μL of sterile phosphate buffer solution. Serum injections were repeated twice (on days 2 and 3) at 6 μL/g of body weight and 7 μL/g respectively.
Urinary creatinine and blood urea nitrogen (BUN) concentrations were analyzed by a standard colorimetric method (Olympus AU400) at the Biochemistry Laboratory of Institut Claude Bernard (IFR2, Faculté de Médecine Paris Diderot). Urinary albumin excretion was measured using a specific ELISA assay for quantitative determination of albumin in mouse urine (CellTrend GmbH).
Kidneys were harvested and fixed in 4% formal. Paraffin-embedded sections (5 μm thick) were stained by Masson's trichrome to evaluate kidney morphology and determine proportion of crescentic glomeruli by a blinded examination on at least 50 glomeruli per section.
For preventive strategy, antagomiR treatment (12 mg/kg) started 3 days before NTS injection. AntagomiRs (VBC biotech, Vienna) were delivered by retro-orbital i.v. injections under brief anesthesia. Second and third injections were performed on days 1 and 3 with NTS injection. For curative strategy, antagomir were injected on days 4, 5 and 8 after NTS. A scramble antagomiR (Antagomir-Control) was used as control. The sequences were obtained from previously published manuscript (66). In the miR-92 antagomir and control antagomir, the 2′O RNA base are methylated followed by first two bases and last 3 bases are phosphorothiated to increase the stability of antagomir from degradation. In addition, a cholesterol-TEG was added at the 3′ for easy entry of antagomir into the cells. AntagomiR-Control (SEQ ID NO: 7, anti-miR-ctrl): 5′-[…]-3′ and antagomiR-92a (SEQ ID NO: 8, anti-miR-92a): 5′-[…]-3′ as shown to be effective after in vivo administration in kidneys (34, 67). Saline-treated mice were used as control of the scramble antagomiR.

[1] = test system: Ki67 and PCNA mRNA expression in primary podocytes; test: RT-PCR of proliferation markers Ki67 and PCNA in primary podocyte cultures; type: cell-based, mouse
Procedure: After 4 days of primary culture, podocytes were trypsinized then plated into μ-Dish 35 mm high with Culture-Insert (Ibidi). Ibidi's wounding inserts were used for cell migration studies. The coverage of the 500-μm gap was assessed after 12 hours of culture and podocyte migration area was quantified using ImageJ software. The effects of HB-EGF (10 ng/mL, Preprotech) or AG1478 (1 μM, Calbiochem) or anti-mIL-6 monoclonal antibody MP5-20F3 (10 μg/mL, eBiosciences) or Stattic (2 μM, Calbiochem) on differentiated podocytes was applied during 16 hours. After stimulation, podocytes were scrapped in Phosphosafe buffer for protein extraction or in RLT buffer for total RNA extraction. Total RNA extraction of mice glomeruli was performed using an Rneasy Minikit (Qiagen) and reverse transcribed into cDNA using the Quantitect Reverse Transcription kit (Qiagen) according to the manufacturer's protocol. cDNA and standard were amplified in Maxima SYBR Green/Rox qPCR mix (Fermentas) on an ABI PRISM thermo cycler. The comparative method of relative quantification (2-ΔΔCT) was used to calculate the expression level of each target gene, normalized to GAPDH. The oligonucleotide sequences are available upon request. The data are presented as the fold change in gene expression. […] Anti-miR-Control#1 was used as control (All from Ambion, 50 nM).

primary podocytes = test: Podocyte outgrowth (proliferation) assay from isolated decapsulated glomeruli; type: cell-based, mouse; settings: for podocyte outgrowth area / proliferation of cultured primary podocytes: Pod-Stat3 WT podocytes treated with Stattic, quantified at day 4
Procedure: Mouse kidneys were extracted, minced, and digested in 2 mg/mL collagenase I solution (Gibco) in RPMI 1640 (Invitrogen) at 37° C. for 3 minutes, then filtered through a 70-μm cell strainer and one more through a 40-μm cell strainer. The homogenate was centrifuged at 720 g for 6 minutes and cells plated. Isolated glomeruli were then collected in Phosphosafc extraction buffer (Novagen) for protein extraction or in RLT extraction buffer (Qiagen) for total RNA extraction. For podocyte primary culture, freshly isolated glomeruli were plated in 6-plate dishes in RPMI 1640 (Invitrogen) supplemented by 10% Fetal Calf Serum (Biowest) and 1% penicillin-streptomycin (Invitrogen). The outgrowth of podocytes started between days 2 and 3. Podocyte outgrowth area was quantified at day 4 using ImageJ software. After 4 days of primary culture, podocytes were trypsinized then plated into μ-Dish 35 mm high with Culture-Insert (Ibidi). Ibidi's wounding inserts were used for cell migration studies. The coverage of the 500-μm gap was assessed after 12 hours of culture and podocyte migration area was quantified using ImageJ software. The effects of HB-EGF (10 ng/mL, Preprotech) or AG1478 (1 μM, Calbiochem) or anti-mIL-6 monoclonal antibody MP5-20F3 (10 μg/mL, eBiosciences) or Stattic (2 μM, Calbiochem) on differentiated podocytes was applied during 16 hours. After stimulation, podocytes were scrapped in Phosphosafe buffer for protein extraction or in RLT buffer for total RNA extraction. […] Anti-miR-Control#1 was used as control (All from Ambion, 50 nM).

[2] = Stattic 25 mg/kg i.p. every other day, day 10 after NTS, 129S2 mice
[3] = antagomiR 12 mg/kg i.v., preventive strategy, 10 days after NTS, vs anti-miR-ctrl or vehicle

Compound	albuminuria (urinary albumin excretion rate) (NTS-challenged mice; [2])	alleviation of the rise in blood urea nitrogen (BUN) concentrations (NTS-challenged mice; [2])	proportion of crescentic glomeruli (NTS-challenged mice; [2])	Ki67 expression in primary podocytes ([1]; Stattic 2 μM for 16 hours)	PCNA expression in primary podocytes ([1]; Stattic 2 μM for 16 hours)	podocyte outgrowth area / proliferation of cultured primary podocytes (primary podocytes)	podocyte outgrowth area / proliferation of cultured primary podocytes (primary podocytes; listed as STAT3 inhibitor)	kidney dysfunction (blood urea nitrogen concentrations) (NTS-challenged mice; [3])	urinary albumin excretion (NTS-challenged mice; [3])	glomerular crescents formation (NTS-challenged mice; antagomiR 12 mg/kg i.v., preventive strategy, vs NTS+anti-miR-ctrl, P<0.05)	results in curative strategy (miR-92a expression, albuminuria, BUN, p57-positive cells) (NTS-challenged mice; antagomir injection on days 4, 5 and 8 after NTS, read at day 10)	Ki67 mRNA level ([1]; anti-miR-92a transfected (50 nM) primary podocytes, vs control cells or anti-miR control)	podocyte outgrowth (primary podocytes; anti-miR-92a transfected (50 nM), over 4 days, vs control cells or anti-miR control)
O=[N+]([O-])c1ccc2c(c1)S(=O)(=O)C=C2 [Stattic]	trend to decreased	50%	reduced	markedly blunted	markedly blunted	inhibited	significantly reduced						
anti-miR-92a: 2′O-methylated, end-phosphorothioated antagomir with 3′ cholesterol-TEG, SEQ ID NO: 8, 5′-CAGGCCGGGACAAGUGCAAUA-3′ (VBC biotech) (listed as RNA, chemistry not fully specified)								strong decrease	strong decrease	-44%	validated	decrease	decrease
